One assay concerns 3T3-L1 adipocytes. The assay is described as follows: Glucose uptake in differentiated 3T3-L1 adipocytes. In kind it is cell-based. The following applies: for % Glucose uptake 0.1 μm / % Glucose uptake 1.0 μm: average of quadruplicate ± SD. The method, then: Referring to FIG. 8 glucose uptake in 3T3-L1 differentiated adipocytes was measured after treatment with the test compound. The assay was conducted according to the method of Tafuri, Endocrinology, 137, 4706-4712 (1996). The serum-starved cells were treated with the test compound for 48 hours at different concentrations, then washed and incubated in glucose-free media for 30 minutes at 37° C. Then ^14C-deoxyglucose was added and uptake was monitored for 30 minutes under incubation. After washing, the cells were lysed (0.1% SIDS) and counted.
Basal glucose uptake was measured in differentiated 3T3-L1 adipocytes following the protocol of Tafuri (6) with modifications. Briefly, 3T3-L1 fibroblasts, obtained from ATCC (Manassas, Va.), were differentiated to adipocytes by treating cells with porcine insulin (1 μg/ml for 4 days), dexamethasone (0.25 μM for first 2 days) and isobutyl methyl xanthine (IBMX, 0.5 mM for first 2 days) (all from Sigma Chemicals, St Louis, Mo.) following the protocol of Frost and Lane (7). Differentiated adipocytes were incubated in Dulbecco's Modified Eagle Medium (DMEM) containing 10% fetal bovine serum (GibcoBRL, Gaithersburg, Md.) with various concentrations of Compound 11 or vehicle (0.1% DMSO) for 48 h in 24-well plates, in triplicate. Cells were washed with phosphate buffered saline (PBS, 150 mM NaCl, 1 mM KH2PO4, 3 mM Na2HPO4; pH 7.4) and incubated in glucose-free DMEM for 2 h at 37° C. The cells were washed 3 times with Krebs Ringer Phosphate Buffer (KRP). Glucose uptake was initiated by addition of 0.25 μCi 2-^14C(U)-deoxy-D-glucose (300 μCi/mmol, American Radiolabeled Chemicals Inc., St Louis, Mo.) per well and the cells incubated for 10 min at room temperature in the presence of 0.1 mmol cold 2-deoxy-D-glucose. Finally, the cells were washed three times with ice-cold PBS containing 10 mM cold glucose, lysed with 0.5% SDS, and counted in a scintillation counter (Beckman LS6500).

The target in another assay is T1, Human PPAR-γ2 (Homo sapiens, UniProt P37231).
T1 construct: inserting the PPARγ2 cDNA coding region into pcDNA3.1+ vector; expressed in transfected cells; host or cells: HEK293 cells (ATCC)
T1 sequence (P37231 1-505): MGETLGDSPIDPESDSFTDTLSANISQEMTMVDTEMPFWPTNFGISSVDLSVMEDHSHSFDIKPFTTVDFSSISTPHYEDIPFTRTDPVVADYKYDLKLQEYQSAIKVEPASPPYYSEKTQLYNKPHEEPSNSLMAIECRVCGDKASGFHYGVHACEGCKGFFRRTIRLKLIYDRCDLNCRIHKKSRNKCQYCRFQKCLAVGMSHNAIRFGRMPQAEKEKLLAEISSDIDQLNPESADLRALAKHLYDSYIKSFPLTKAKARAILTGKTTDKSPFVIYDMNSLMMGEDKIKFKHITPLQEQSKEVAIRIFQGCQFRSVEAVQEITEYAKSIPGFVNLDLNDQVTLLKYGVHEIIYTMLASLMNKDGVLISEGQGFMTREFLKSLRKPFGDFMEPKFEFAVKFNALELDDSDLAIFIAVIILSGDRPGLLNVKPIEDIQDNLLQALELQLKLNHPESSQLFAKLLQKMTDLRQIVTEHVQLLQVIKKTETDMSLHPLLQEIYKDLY
Description: PPAR-gamma mediated transactivation of PPRE-luciferase reporter. In kind it is cell-based. Conditions: for EC50: cells transfected with human PPAR-gamma2, 24 hours, non-linear regression, read-out: EC50, induction of PPAR-γ mediated luciferase activity. The method, then: Human PPAR-γ2 expression vector was constructed by inserting PPAR-γ2 encoding region into pcDNA3.1+ vector (Invitrogen, Carlsbad, Calif.). Luciferase reporter vector was constructed by ligating PPRE response element adjacent to the upstream of Firefly luciferase coding region. Control vector, pRL-SV40 expressing Renilla luciferase was purchased from Promega (Madison, Wis.).
About 2.7×10^4 293 cells (ATCC, Manassas, Va.) were plated into a 35 mm culture well and maintained in Eagle's Minimal Essential Medium (ATCC, Manassas, Va.) supplemented with 10% heat inactivated horse serum (ATCC, Manassas, Va.) for 24 hours. Expression, reporter and control vectors (2.5 ng control and 100 ng others per culture well) were transfected by LI[…]™ Reagent (Invitrogen, Carlsbad, Calif.). Transfection reagent and DNA were prepared according to manufacture's recommendations and incubated with cells for 3 hours followed by adding equal volume EMEM supplemented with 20% horse serum. Twenty-four hours after transfection, cells were treated with vehicle or compounds at indicated final concentration for 24 hours. Final concentration of vehicle was 0.001% DMSO (Sigma, ST Louis, Mo.) in medium. Vehicle and compound treatment were all conducted in triplicate. Each culture well was then assayed for a response characterized by increased Firefly luciferase activity normalized with Renilla luciferase activity.
Assays for Firefly luciferase activity and Renilla luciferase activity followed the standard protocol of Dual-luciferase Reporter® Assay System (Promega, Madison, Wis.). Briefly, 400 μl Passive Lysis Buffer was added into each culture well and all wells were placed on a shaker for 15 minutes. Five μl cell lysate of each well was added to a reaction tube. Luciferase reagent II and Stop & Glo® were injected into the reaction tube sequentially by Sirius Luminometer (Berthold Detection Systems, Pforzheim, Germany). Final reporter activity was calculated as the ratio of Firefly luciferase activity over by Renilla luciferase activity.
Human PPARγ2 expression vector was constructed by inserting the PPARγ2 cDNA coding region into pcDNA3.1+ vector (Invitrogen, Carlsbad, Calif.). The PPRE-luciferase reporter gene was the kind gift of Dr. Kenneth Feingold. The control vector, pRL-SV40 containing the Renilla luciferase cDNA was purchased from Promega (Madison, Wis.). About 2.7×10^4 HEK293 human embryonal kidney cells (ATCC) were plated into a 35-mm tissue culture dish and maintained in Eagle Modified Essential Medium (EMEM, ATCC) containing 10% heat-inactivated horse serum for 24 h. Expression, reporter (100 ng/dish) and control (2.5 ng/dish) vectors were transfected using LI[…]™ Reagent (GibcoBRL) according to manufacturer's recommendation. At 24 h after transfection, cells were treated with vehicle (0.001% DMSO in medium) or compounds at the indicated concentration and incubated for 24 h. Each treatment was conducted in triplicate. Each culture dish was assayed for firefly luciferase activity normalized by Renilla luciferase activity to account for differences in transfection efficiency. Luciferase activity was measured using the Dual-luciferase Reporter® Assay System (Promega) and a Sirius luminometer (Berthold Detection System, Pforzheim, Germany).

The subject of another assay is NF-kB p65. The assay is described as follows: NF-kB p65 activation in LPS-stimulated RAW cells (ELISA). The following applies: 10 μM, 1 μg/ml LPS 15 min, FIG. 15. In kind it is cell-based.
For another assay, the system named is AIA rats. The assay is described as follows: Cancellous bone loss in adjuvant induced arthritic (AIA) rats, MicroCT of right proximal tibia. The class given is in vivo, male Lewis rats.

These results are taken from patent US20060235062A1, “Novel heterocyclic analogs of diphenylethylene compounds” (THERACOS, INC., priority 2002, published 2006).

As for `COC(=O)/C(=C\c1cc(OC)cc(OC)c1)c1ccc(Oc2ccc(CC3SC(=O)NC3=O)cc2)cc1` (stereo not shown) [Compound 23, Z-3-(3,5-Dimethoxyphenyl)-2-{4-[4-(2,4-dioxothiazolidin-5-ylmethyl)-phenoxy]-phenyl}-acrylic acid methyl ester], in the assay on 3T3-L1 adipocytes (1 μM), the “glucose uptake activity in words” value is “essentially inactive”. Besides, in the assay with 3T3-L1 adipocytes, the “% Glucose uptake 0.1 μm” value is given as 89.5 ± 5.6 % basal of the non treated cells and the “% Glucose uptake 1.0 μm” value is on record as 118.0 ± 3.6 % basal of the non treated cells. Moreover, the EC50 at Human PPAR-γ2 is 3.69 ± 1.45 µM. The “PPAR-gamma transactivation potency relative to a comparator, in words” value at Human PPAR-γ2 (in vitro transactivation assay) was “less than one-tenth the potency of compound 11”.

With “Insulin: insulin, comparator in the 3T3-L1 glucose uptake test”, in the assay with 3T3-L1 adipocytes, the “% Glucose uptake 0.1 μm” value is 335.2 ± 21.7 % basal of the non treated cells and the “% Glucose uptake 1.0 μm” value was 345.6 ± 8.3 % basal of the non treated cells.

Turning to `CCCCC/C=C/C=C1/C(=O)C=C[C@@H]1C/C=C\CCCC(=O)O` [Compound 15dPGJ2, 15-deoxy-Δ^12,14-prostaglandin J2], the “inhibition of the activation of NF-kB (p65)” value in the assay with NF-kB p65 is recorded as “inhibited”.

For `COC(=O)C(Cc1cc(OC)cc(OC)c1)c1ccc(Oc2ccc(CC3SC(=O)NC3=O)cc2)cc1` (stereo not shown) [Compound 18, 3-(3,5-Dimethoxyphenyl)-2-{4-[4-(2,4-dioxothiazolidin-5-ylmethyl)-phenoxy]-phenyl}-propionic acid methyl ester], the “glucose uptake activity in words” value in the assay with 3T3-L1 adipocytes (0.1 μM) is reported as “devoid of activity”. Besides, in the assay with 3T3-L1 adipocytes (1 μM), the “glucose uptake activity in words” value is reported as “modest activity”. Also, in the assay on 3T3-L1 adipocytes, the “% Glucose uptake 0.1 μm” value was 104.4 ± 5.7 % basal of the non treated cells and the “% Glucose uptake 1.0 μm” value is 137.0 ± 10.1 % basal of the non treated cells. At Human PPAR-γ2, the EC50 stood at 57.7 µM. For the same molecule, the “PPAR-gamma agonist potency in words” value on Human PPAR-γ2 (in vitro transactivation assay) is “essentially inactive”.

For the molecule Etanercept, the “less cancellous bone lost” value in the assay with AIA rats (AIA rats, treated vs vehicle) is on record as about 50%. In the assay with AIA rats (right proximal tibia), the C.Th is listed as 198 ± 25 μm, the “Conn. Dens” value is 31.9 ± 19.7 l/mm3, the “SMI (0-3)” value worked out at 2.8 ± 0.4 and the Tb.N is 2.8 ± 0.5 l/mm. Also, the BV/TV in the assay with AIA rats (right proximal tibia, compound 11 50 mg/kg oral, etanercept 1.67 mg/kg i.p., once daily) came to 12.9 ± 5.2%.

With `COC(=O)C(=Cc1cc(OC)cc(OC)c1)c1ccc(Oc2ccc(C=C3SC(=O)NC3=O)cc2)cc1` [Compound 10, 3-(3,5-Dimethoxyphenyl)-2-{4-[4-(2,4-dioxothiazolidin-5-ylidenemethyl)-phenoxy]-phenyl}-acrylic acid methyl ester], the “glucose uptake activity in words” value with 3T3-L1 adipocytes (0.1 μM) is “retained activity, but less than that of rosiglitazone”. The “glucose uptake activity in words” value with 3T3-L1 adipocytes (1 μM) was “comparable to rosiglitazone”. Further, in the assay with 3T3-L1 adipocytes, the “% Glucose uptake 0.1 μm” value is listed as 142.6 ± 7.4 % basal of the non treated cells and the “% Glucose uptake 1.0 μm” value is 209.3 ± 22.6 % basal of the non treated cells. At Human PPAR-γ2, the EC50 is 1.14 µM. Besides, the “PPAR-gamma agonist potency in words” value at Human PPAR-γ2 (in vitro transactivation assay) is recorded as “reasonable potency”.

`COC(=O)C(Cc1cc(OC)cc(OC)c1)c1ccc(Oc2ccc(C=C3SC(=O)NC3=O)cc2)cc1` (stereo not shown) [Compound 17, 3-(3,5-Dimethoxyphenyl)-2-{4-[4-(2,4-dioxothiazolidin-5-ylidenemethyl)-phenoxy]-phenyl}-propionic acid methyl ester]: the “glucose uptake activity in words” value is on record as “devoid of activity” in the assay with 3T3-L1 adipocytes (0.1 μM) and “modest activity” in the assay with 3T3-L1 adipocytes (1 μM). The “% Glucose uptake 0.1 μm” value with 3T3-L1 adipocytes was 101.9 ± 6.8 % basal of the non treated cells. For the same molecule, the “% Glucose uptake 1.0 μm” value with 3T3-L1 adipocytes is 130.0 ± 27.0 % basal of the non treated cells. In addition, the EC50 at Human PPAR-γ2 stood at 23.9 µM. Also, on Human PPAR-γ2 (in vitro transactivation assay), the “PPAR-gamma agonist potency in words” value was “essentially inactive”.

On to `COc1cc(C=C(C(=O)O)c2ccc(Oc3ccc(CC4SC(=O)NC4=O)cc3)cc2)cc(OC)c1` (stereo not shown) [Compound 14], for which, in the assay on 3T3-L1 adipocytes (1 μM), the “glucose uptake activity in words” value is on record as “comparable to rosiglitazone”. In addition, in the assay on 3T3-L1 adipocytes, the “% Glucose uptake 0.1 μm” value is on record as 108.6 ± 19.9 % basal of the non treated cells and the “% Glucose uptake 1.0 μm” value is listed as 199.5 ± 11.6 % basal of the non treated cells. Besides, at Human PPAR-γ2, the EC50 amounted to 0.69 ± 0.038 µM. The “PPAR-gamma agonist potency in words” value on Human PPAR-γ2 (in vitro transactivation assay) is “reasonable potency”.
